Reference: patent EP0560267B1, “Isosteric antiherpes peptide derivatives” (BOEHRINGER INGELHEIM (CANADA) LTD., priority 1992, dated 1993)
Like-named read-outs stand apart in the source and are kept apart here.

Assays:
[1] = target: T1, HSV-1 ribonucleotide reductase (Human herpesvirus 1, UniProt P08543); test: Inhibition of Herpes Simplex Virus (HSV-1) ribonucleotide reductase; assay type: biochemical
T1 construct: HSV-1 ribonucleotide reductase (partially purified) was obtained from quiescent BHK-21/C13 cells infected with strain F HSV-1 virus; made in house; host or cells: quiescent BHK-21/C13 cells infected with HSV-1 strain F (virus-encoded enzyme, partially purified)
T1 sequence (P08543 whole entry): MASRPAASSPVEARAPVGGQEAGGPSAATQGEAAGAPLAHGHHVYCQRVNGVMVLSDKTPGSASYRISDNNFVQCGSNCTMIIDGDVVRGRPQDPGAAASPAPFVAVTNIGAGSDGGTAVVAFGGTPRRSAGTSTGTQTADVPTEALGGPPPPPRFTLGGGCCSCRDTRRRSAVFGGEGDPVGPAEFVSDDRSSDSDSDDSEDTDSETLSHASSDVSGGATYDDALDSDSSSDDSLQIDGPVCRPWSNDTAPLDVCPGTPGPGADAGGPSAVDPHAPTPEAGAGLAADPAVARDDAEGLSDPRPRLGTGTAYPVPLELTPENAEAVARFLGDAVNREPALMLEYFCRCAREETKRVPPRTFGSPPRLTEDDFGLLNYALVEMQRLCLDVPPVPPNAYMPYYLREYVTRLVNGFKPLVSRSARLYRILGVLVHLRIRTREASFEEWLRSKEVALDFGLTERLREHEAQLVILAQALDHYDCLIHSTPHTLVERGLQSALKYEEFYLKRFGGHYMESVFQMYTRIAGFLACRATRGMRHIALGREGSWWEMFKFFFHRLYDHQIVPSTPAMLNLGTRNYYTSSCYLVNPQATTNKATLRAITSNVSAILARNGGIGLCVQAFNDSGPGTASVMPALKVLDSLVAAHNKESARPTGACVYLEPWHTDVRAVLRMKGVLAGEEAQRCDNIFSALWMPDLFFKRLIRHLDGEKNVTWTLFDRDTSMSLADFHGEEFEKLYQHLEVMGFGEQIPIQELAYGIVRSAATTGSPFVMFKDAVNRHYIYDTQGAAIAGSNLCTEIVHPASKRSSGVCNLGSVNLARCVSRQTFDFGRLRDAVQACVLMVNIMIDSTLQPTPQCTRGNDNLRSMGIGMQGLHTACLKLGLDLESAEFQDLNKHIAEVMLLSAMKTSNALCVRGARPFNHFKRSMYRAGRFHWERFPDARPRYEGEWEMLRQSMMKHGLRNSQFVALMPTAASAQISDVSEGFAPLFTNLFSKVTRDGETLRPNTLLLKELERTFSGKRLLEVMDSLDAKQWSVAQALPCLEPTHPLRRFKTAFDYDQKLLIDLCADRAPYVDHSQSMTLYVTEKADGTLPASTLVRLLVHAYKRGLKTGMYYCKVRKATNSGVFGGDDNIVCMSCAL
From the text: Inhibition of Herpes Simplex Virus (HSV-1) Ribonucleotide Reductase
• a) Preparation of Enzyme HSV-1 ribonucleotide reductase (partially purified) was obtained from quiescent BHK-21/C13 cells infected with strain F HSV-1 virus at 10 plaque forming units/cell as described by E.A. Cohen et al., J. Gen. Virol., 66, 733 (1985). • b) Assay and Results for Exemplified Peptides By following the procedure described by P. Gaudreau et al., J. Biol, Chem., 262, 12413 (1987), the assay results listed in the following Table I were obtained. The assay result for each exemplified compound of formula 1 is expressed as the concentration of the compound producing 50% of the maximal inhibition (IC50) of enzyme activity. The number of units of the enzyme preparation used in each assay was constant, based on the specific activity of the enzyme preparation. The results are relative to the activity obtained in control experiments without the test compound and represent the mean of four assays that varied less than 10% with each other.

HSV-2 = test: Inhibition of Herpes Simplex Virus (HSV-2) replication in cell culture; assay type: cell-based
Experimental: Inhibition of Herpes Simplex Virus (HSV-2) Replication in Cell Culture
BHK-21/C13 cells (ATCC CCL 10) are incubated for two days in 150 cm^2 T-flasks (1.5 x 10^6 cells/flask) with alpha-MEM medium (Gibco Canada Inc., Burlington, Ontario, Canada) supplemented with 8% (v/v) fetal bovine serum (FBS, Gibco Canada Inc.). The cells are trypsinized and then transferred to fresh media in a 24 well plate to give 2.5 x 10^5 cells in 750 µL of media per well. The cells are incubated at 37° for a period of 6 h to allow them to adhere to the plate. Thereafter, the cells are washed once with 500 µL of alpha-MEM supplemented with 0.5% (v/v) FBS and then incubated with 750 µL of the same media (low serum) for 3 days. After this period of serum starvation, the low serum medium is removed and the cells are incubated in 500 µL of BBMT for 2 to 3 hours. {BBMT medium is described by P. Brazeau et al., Proc. Natl. Acad. Sci. USA, 79, 7909 (1982).} Thereafter, the cells are infected with HSV-2 (multiplicity of infection = 0.02 PFU/cell) in 100 µL of BBMT medium. (Note: The HSV-2 used was strain HG-52, see Y. Langelier and G. Buttin, J. Gen. Virol., 57, 21 (1981); the virus was stored at -80°.) Following 1 h of virus adsorption at 37°, the media is removed and the cells are washed with BBMT (3 X 250 µL). The cells in each well are incubated with or without (control) appropriate concentrations of the test agent dissolved in 200 µL of BBMT medium. After 29 h of incubation at 37°, the infected cells are harvested by first freezing the plate at -80°, followed by thawing. The cells in each well are scraped off the surface of the well with the help of the melting ice fragments. After complete thawing, the cell suspensions are collected and each well is rinsed with 150 µL of BBMT medium. The viral sample (suspension plus washing) is sonicated gently for 4 min at 4°. Cell debris are removed by centrifugation (1000 times gravity for 10 minutes at 4°). The supernatant is collected and stored at -80° until determination of viral titer.
Viral titration was performed by a modification of the colorimetric assay method of M. Langlois et al., Journal of Biological Standardization, 14, 201 (1986).
More specifically, in a similar manner as described above, BHK-21/C13 cells are trypsinized and transferred to fresh media in a 96 well microtiter plate to give 20,000 cells in 100 µL of media per well. The cells in the prepared plate are incubated at 37° for 2 h. During that time, the viral sample is thawed and sonicated gently for 15 seconds, and log dilutions of the sample are prepared (1/5 sequential: 50 µL of the sample plus 200 µL of BBMT medium, sequential dilutions being done with a multichannel pipette.
On completion of the above 2 hour incubation of the BHK-21/C13 cells, the media is replaced with alpha-MEM medium supplemented with 3% (v/v) FBS. The cells are now ready to be infected with the various sample dilutions of virus. Aliquots (50 µL) of the various dilutions are transferred into the appropriate wells of the plate. The resulting infected cells are incubated for 2 days at 37°. Then 50 µL of a 0.15% (v/v) solution of neutral red dye in Hank's Balanced Salt Solution (pH 7.3, Gibco Canada Inc.) is added to each well. The prepared plate is incubated for 45 min at 37°. Medium from each well is then aspirated and the cells are washed once with 200 µL of Hank's Balanced Salt Solution. […]

[2] = Human alphaherpesvirus 2, Table IV, cell culture assay of example 11, read-out: EC50
[3] = Table I, partially purified enzyme from BHK-21/C13 cells infected with strain F HSV-1, mean of four assays
[4] = Human alphaherpesvirus 2, BHK21 (C13), 29 h, Table II, BHK-21/C13 cells, HSV-2 strain HG-52, 0.02 PFU/cell, 29 h incubation, read-out: EC50

Compound | IC50 ([1]; Table IV, assay of example 10) [µM] | EC50 (HSV-2; [2]) [µM] | also measured
CCCCC(CCCC)NC(=O)NC(C(=O)CC(CC(=O)C(C)(C)C)C(=O)NC(C(=O)NCC(C)(C)C)C1(C(=O)O)CCCC1)C(C)(C)C [Bu2CHNHC(O) / NHCH2CMe3, Bu2CHNHC(O)-Tbg-CH2-(R)-CH(CH2C(O)CMe3)C(O)-Asp(cyPn)-NHCH2CMe3] | 0.53 | 65 | –
CCC(CC)NC(=O)NC(C(=O)CC(CC(=O)C(C)(C)C)C(=O)NC(C(=O)NCC(C)(C)C)C1(C(=O)O)CCCC1)C(C)(C)C [Et2CHNHC(O)-Tbg-CH2-(R)-CH(CH2C(O)-CMe3)C(O)-Asp(cyPn)-NHCH2CMe3] | – | – | IC50 [1, 3]: 0.23 µM; EC50 (HSV-2; [4]): 56 µM
CCC(CC)NC(=O)NC(C(=O)CC(CC(=O)C1CCCC1)C(=O)NC(C(=O)NCC(C)(C)C)C1(C(=O)O)CCCC1)C(C)(C)C [Et2CHNHC(O)-Tbg-CH2-(R)-CH{CH2C(O)-(cyclopentyl)}C(O)-Asp(cyPn)-NHCH2CMe3] | – | – | IC50 [1, 3]: 0.22 µM; EC50 (HSV-2; Human alphaherpesvirus 2, BHK21 (C13), 29 h): 50 µM
CCC(CC)NC(=O)NC(C(=O)CC(CC(=O)N1CCCC1)C(=O)NC(C(=O)NC(CO)CC(C)(C)C)C1(C(=O)O)CCCC1)C(C)(C)C [Et2CHNHC(O)-Tbg-CH2-(S)-CH{CH2C(O)-(pyrrolidino)}C(O)-Asp(cyPn)-γMeLeucinol] | – | – | IC50 [1, 3]: 0.17 µM; EC50 (HSV-2; [4]): 200 µM
CCCC(CC)(CCC)NC(=O)NC(C(=O)CC(CC(=O)C(C)(C)C)C(=O)NC(C(=O)NC(CC)C(C)(C)C)C1(C(=O)O)CCCC1)C(C)(C)C [EtPr2CNHC(O) / NH-(R)-CH(Et)CMe3, EtPr2CNHC(O)-Tbg-CH2-(R)-CH(CH2C(O)CMe3)C(O)-Asp(cyPn)-NH-(R)-CH(Et)CMe3] | 0.36 | 6 | –
CCCC(CC)(CCC)NC(=O)NC(C(=O)CC(CC(=O)C(C)(C)C)C(=O)NC(C(=O)NC(C)C(C)(C)C)C1(C(=O)O)CCCC1)C(C)(C)C [EtPr2CNHC(O) / NH-(R)-CH(Me)CMe3, EtPr2CNHC(O)-Tbg-CH2-(R)-CH(CH2C(O)CMe3)C(O)-Asp(cyPn)-NH-(R)-CH(Me)CMe3] | 0.41 | 10 | –
CCCC(C)(C)NC(=O)NC(C(=O)CC(CC(=O)C(C)(C)C)C(=O)NC(C(=O)NCC(C)(C)C)C1(C(=O)O)CCCC1)C(C)(C)C [Me2PrCNHC(O) / NHCH2CMe3, Me2PrCNHC(O)-Tbg-CH2-(R)-CH(CH2C(O)CMe3)C(O)-Asp(cyPn)-NHCH2CMe3] | 0.39 | 58 | –
CCCC(C)(CCC)NC(=O)NC(C(=O)CC(CC(=O)C(C)(C)C)C(=O)NC(C(=O)NCC(C)(C)CC)C1(C(=O)O)CCCC1)C(C)(C)C [MePr2CHNHC(O) / NHCH2CMe2Et, MePr2CHNHC(O)-Tbg-CH2-(R)-CH(CH2C(O)CMe3)C(O)-Asp(cyPn)-NHCH2CMe2Et] | 0.36 | – | EC50 (HSV-2; Human alphaherpesvirus 2, Table IV, cell culture assay of example 11): 29 µM
CCCC(C)(CCC)NC(=O)N[C@H](C(=O)C[C@@H](CC(=O)C(C)(C)C)C(=O)N[C@H](C(=O)NCC(C)(C)C)C1(C(=O)O)CCCC1)C(C)(C)C [MePr2CNHC(O) / NHCH2CMe3, MePr2CNHC(O)-Tbg-CH2-(R)-CH(CH2C(O)CMe3)C(O)-Asp(cyPn)-NHCH2CMe3] | 0.28 | 26 | –
CCCC(CCC)NC(=O)NC(C(=O)CC(CC(=O)C(C)(C)C)C(=O)NC(C(=O)NC(C)C(C)(C)C)C1(C(=O)O)CCCC1)C(C)(C)C [Pr2CHNHC(O) / NH-(R)-CH(Me)CMe3, Pr2CHNHC(O)-Tbg-CH2-(R)-CH(CH2C(O)CMe3)C(O)-Asp(cyPn)-NH-(R)-CH(Me)CMe3] | 0.28 | 14 | –
CCCC(CCC)NC(=O)NC(C(=O)CC(CC(=O)C(C)(C)C)C(=O)NC(C(=O)NC(CCC)C(C)(C)C)C1(C(=O)O)CCCC1)C(C)(C)C [Pr2CHNHC(O) / NH-(R)-CH(Pr)CMe3, Pr2CHNHC(O)-Tbg-CH2-(R)-CH(CH2C(O)CMe3)C(O)-Asp(cyPn)-NH-(R)-CH(Pr)CMe3] | 0.43 | 15 | –
CCCC(CCC)NC(=O)NC(C(=O)CC(CC(=O)C(C)(C)C)C(=O)NC(C(=O)NN(C)C(C)(C)C)C1(C(=O)O)CCCC1)C(C)(C)C [Pr2CHNHC(O) / NH-N(Me)CMe3, Pr2CHNHC(O)-Tbg-CH2-(R)-CH(CH2C(O)CMe3)C(O)-Asp(cyPn)-NH-N(Me)CMe3] | 0.27 | 110 | –
CCCC(CCC)NC(=O)NC(C(=O)CC(CC(=O)C(C)(C)C)C(=O)NC(C(=O)NCC(C)CC)C1(C(=O)O)CCCC1)C(C)(C)C [Pr2CHNHC(O) / NHCH2-(R,S)-CH(Me)Et, Pr2CHNHC(O)-Tbg-CH2-(R)-CH(CH2C(O)CMe3)C(O)-Asp(cyPn)-NHCH2-(R,S)-CH(Me)Et] | 0.29 | 50 | –

The next lines start with results.

IC50 ([1]; Table IV, assay of example 10) [µM] | EC50 (HSV-2; [2]) [µM] | Compound | also measured
0.23 | 35 | CCCC(CC)NC(=O)NC(C(=O)CC(CC(=O)C(C)(C)C)C(=O)NC(C(=O)NCC(C)(C)C)C1(C(=O)O)CCCC1)C(C)(C)C [(R,S)-EtPrCH-NHC(O) / NHCH2CMe3, (R,S)-EtPrCH-NHC(O)-Tbg-CH2-(R)-CH(CH2C(O)CMe3)C(O)-Asp(cyPn)-NHCH2CMe3] | –
0.34 | 10 | CCCC(CCC)NC(=O)NC(C(=O)CC(CC(=O)C(C)(C)C)C(=O)NC(C(=O)NC(CC)C(C)(C)C)C1(C(=O)O)CCCC1)C(C)(C)C [Pr2CHNHC(O) / NH-(R)-CH(Et)CMe3, Pr2CHNHC(O)-Tbg-CH2-(R)-CH(CH2C(O)CMe3)C(O)-Asp(cyPn)-NH-(R)-CH(Et)CMe3] | –
0.37 | 14 | CCCC(CCC)NC(=O)NC(C(=O)CC(CC(=O)C(C)(C)C)C(=O)NC(C(=O)NC(C)CC(C)(C)C)C1(C(=O)O)CCCC1)C(C)(C)C [Pr2CHNHC(O) / NH-(R)-CH(Me)CH2CMe3, Pr2CHNHC(O)-Tbg-CH2-(R)-CH(CH2C(O)CMe3)C(O)-Asp(cyPn)-NH-(R)-CH(Me)CH2CMe3] | –
0.33 | 16 | CCCC(CCC)NC(=O)NC(C(=O)CC(CC(=O)C(C)(C)C)C(=O)NC(C(=O)NC(C)C(CC)CC)C1(C(=O)O)CCCC1)C(C)(C)C [Pr2CHNHC(O) / NH-(R)-CH(Me)CHEt2, Pr2CHNHC(O)-Tbg-CH2-(R)-CH(CH2C(O)CMe3)C(O)-Asp(cyPn)-NH-(R)-CH(Me)CHEt2] | –
0.23 | 48 | CCCC(CCC)NC(=O)NC(C(=O)CC(CC(=O)C(C)(C)C)C(=O)NC(C(=O)NC(CO)C(C)(C)C)C1(C(=O)O)CCCC1)C(C)(C)C [Pr2CHNHC(O) / NH-(S)-CH(CMe3)CH2OH, Pr2CHNHC(O)-Tbg-CH2-(R)-CH(CH2C(O)CMe3)C(O)-Asp(cyPn)-NH-(S)-CH(CMe3)CH2OH] | –
0.36 | 47 | CCCC(CCC)NC(=O)NC(C(=O)CC(CC(=O)C(C)(C)C)C(=O)NC(C(=O)NCC1CCCCC1)C1(C(=O)O)CCCC1)C(C)(C)C [Pr2CHNHC(O) / NHCH2-(cyclohexyl), Pr2CHNHC(O)-Tbg-CH2-(R)-CH(CH2C(O)CMe3)C(O)-Asp(cyPn)-NHCH2-(cyclohexyl)] | –
